In patent US5654273A, “Synducin mediated modulation of tissue repair” (Children's Medical Center Corporation, priority 1994, dated 1997):
Where no end group is shown, it is not given here.

Columns and labels:
Type in all cases: cell-based
[1] = tested on: cell surface syndecan-1; assay: ELISA for cell surface syndecan-1 on NIH 3T3 cells; details: for increase of cell surface syndecan-1: confluent NIH 3T3 cells, after 48 hr culture
Protocol: An in vitro cell culture system was used to explore the mechanism by which cell surface syndecans is induced. NIH 3T3 cells grown to confluence in serum-containing medium were exposed to potential inducers and then evaluated by ELISA for the amount of cell surface syndecan-1.
Syndecan-1 at the cell surface was determined on cells cultured in 96 well tissue culture plates by washing the cells once in Tris buffered saline (TBS) (10 mM Tris, 150 mM NaCl, pH 7.4), fixing 30 min in 2% HEPES-buffered paraformaldehyde, pH 7.4, rinsing three times in TBS and incubating the cells for 30 min in TBS, 0.1% BSA, 5% goat serum. Cells were incubated for 1 hr at room temperature with 5 μg/ml mAb 281-2 (specific for extracellular domain of syndecan-1 core protein) (M. Jalkanen, H. Nguyen, A. C. Rapraeger, N. Kurn, M. Bernfield, J. Cell Biol., 101:976 (1985)) or non-specific rat IgG2A (Zymed, San Francisco, Calif.). Cells were then rinsed 3×5 min with TBS, incubated with alkaline phosphatase conjugated goat anti-rat antibody (Caltag, San Francisco, Calif.) for 30 min, rinsed 3×5 min with TBS, and alkaline phosphatase activity determined by measuring the absorbance at 405 nm of a 1 mg/ml solution of p-nitrophenolphosphate (Sigma, St. Louis, Mo.) in 10 mM Tris, 100 mM NaCl, 5 mM MgCl pH 9.5. Linear rates of absorbance change over time were determined by an automated microplate reader (Molecular Devices, Menlo Park, Calif.). Cells were then rinsed 3× with TBS and cellular protein determined by solubilizing cells in individual wells with 20 μl of 0.1N NaOH followed by protein determination (BCA protein assay, Pierce, Rockford, Ill.).
These measurements correlated strongly over the range of syndecan-1 detected in this study (r=0.96), confirming that the ELISA assay provides a quantitative assessment of cell surface syndecan-1. […]

[2] = tested on: NIH 3T3 cells; assay: Cell number, cell protein and morphology of treated NIH 3T3 cells
[3] = tested on: NIH-3T3 cells; assay: Cell permeability after PR-39 treatment (propium iodide); details: for fluorescent cells per 20× field: confluent NIH-3T3, 60 minutes at 37° C., 50 μg/ml propium iodide
Protocol: Cell permeability after PR-39 treatment was then measured. NIH-3T3 cells were cultured to confluence on chamber slides. 0, 0.1, 0.5, 1, and 10 μM PR-39 was added to the culture medium and incubated 60 minutes at 37° C.; then 50 μg/ml propium iodide (FW 688) was added.

[4] = tested on: NIH-3T3 cells; assay: Effect on cell morphology (f-actin, rhodamine phalloidin); details: 2 μM, 72 hr, confluent NIH-3T3
Protocol: To determine the effect on cell morphology, NIH-3T3 cells were cultured to confluence on coverslips in 24 well plates. 2 μM PR-39 was added the medium and cultured for 72 hr. 2% PFA and acetone were used to fix cells and cells were stained with f-actin with rhodamine phalloidin.

[5] = tested on: NIH-3T3 cells; assay: Uptake and binding of iodinated PR-39
Protocol: FIG. 4 is a graph showing uptake of PR-39 by NIH-3T3 cells.
PR-39 was iodinated using the Iodogen procedure (Pierce T). The influx and efflux kinetics were calculated, accessable compartments were evaluated, and total uptake measured in NIH-3T3 cells.

Row | Substance | increase of cell surface syndecan-1 [1] | increase of cell number [2] | fluorescent cells per 20× field [3] | further results
1 | PDGF-AB | approximately three to four-fold | about two-fold | – | –
2 | FGF-2 | approximately three to four-fold | about two-fold | – | –
3 | RRRPRPPYLPRPRPPPFFPPRLPPRIPPGFPPRFPPRFP [PR-39] | – | – | 2 /20× field | membrane permeability change ([3]; 0.1, 0.5, 1 and 10 μM, 60 minutes at 37° C.): no large perability changes; induction of cell surface syndecan-1 by PR-39 ([1]; NIH-3T3 cells, 43 hours): concentration dependent manner; change in cell morphology [4]: No change in cell morphology; uptake into cells ([5]; iodinated PR-39, NIH-3T3 cells): rapidly associates with and enters NIH-3T3 cells; saturation of uptake ([5]; radioactive PR-39, NIH-3T3 cells): reaches a saturation point
4 | Triton™ | – | – | approximately 50 /20× field | fluorescent cells, percent ([3]; confluent NIH-3T3, 50 μg/ml propium iodide): 100%
